Experimental findings from PubChem BioAssay (NCI) are described below.

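Briefly, cells in 96-well plates were exposed to five compound concentrations for 48 h, and endpoints were estimated by linear interpolation. Definition used: TGI = concentration required for complete inhibition of growth.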 Some results are limits rather than exact numbers.

Test systems include A498 renal; A549 NSCLC; CAKI-1 renal; CCRF-CEM leukemia; HCT-116 colon; HOP-92 NSCLC; MALME-3M melanoma; MCF7 breast; NCI-H460 lung; NCI-H522 lung; OVCAR-5 ovarian; OVCAR-8 ovarian; RPMI-8226 leukemia; RXF 393 renal; SF-268 CNS; SF-539 CNS; SK-MEL-2 melanoma; SW-620 colon; UACC-257 melanoma; ACHN renal.
What all share (test): NCI-60 cell line screen, 48 h

For `S=P1(Sc2ccccc2)Oc2ccc3ccccc3c2-c2c(ccc3ccccc23)O1`, the TGI with A498 renal, with A549 NSCLC, with CAKI-1 renal, in the experiment with CCRF-CEM leukemia, in the experiment on HCT-116 colon and in the experiment with HOP-92 NSCLC was over 100 µM in each case. Moreover, the TGI in the experiment with MALME-3M melanoma, in the experiment on MCF7 breast, in the experiment with NCI-H460 lung, in the experiment on NCI-H522 lung, with OVCAR-5 ovarian and in the experiment on OVCAR-8 ovarian was over 100 µM each time. Also, the TGI with RPMI-8226 leukemia, in the experiment with RXF 393 renal, in the experiment with SF-268 CNS, in the experiment on SF-539 CNS, with SK-MEL-2 melanoma and in the experiment on SW-620 colon was over 100 µM in each case. In the experiment with UACC-257 melanoma, the TGI is over 100 µM.

For `c1ccc2c3c(ccc2c1)-c1[nH]ncc1CCO3`, the TGI is 99.7 µM in the experiment with A498 renal; over 100 µM with A549 NSCLC; over 64 µM with CAKI-1 renal; over 100 µM in the experiment with CCRF-CEM leukemia; over 88.5 µM in the experiment with HCT-116 colon; 57.7 µM in the experiment with HOP-92 NSCLC. In addition, the TGI in the experiment with MALME-3M melanoma was over 100 µM; in the experiment on MCF7 breast it was over 100 µM; in the experiment on NCI-H460 lung, over 88 µM; in the experiment with NCI-H522 lung, over 81.5 µM; in the experiment on OVCAR-5 ovarian it was over 86.2 µM; in the experiment with OVCAR-8 ovarian, over 90.1 µM. The TGI is over 74.2 µM with RXF 393 renal; 98.8 µM in the experiment with SF-268 CNS; 69.8 µM in the experiment on SF-539 CNS; 85.3 µM with SK-MEL-2 melanoma; over 100 µM with SW-620 colon; 83.6 µM with UACC-257 melanoma.

`CC(C)(C)c1ccc2c(c1)OP1(Oc3c(Cl)cc(Cl)c4cccnc34)(O2)Oc2ccc(C(C)(C)C)cc2O1`: the TGI in the experiment with A498 renal was 28.7 µM; with A549 NSCLC, 34.6 µM; with CAKI-1 renal it was 9.58 µM; in the experiment with CCRF-CEM leukemia, over 100 µM; in the experiment on HCT-116 colon it was 17.4 µM; with MALME-3M melanoma it was 24.9 µM. The TGI stood at 17.3 µM in the experiment on MCF7 breast; 16.2 µM in the experiment on NCI-H460 lung; 8.45 µM in the experiment on NCI-H522 lung; 27.5 µM in the experiment on OVCAR-5 ovarian; 45.8 µM in the experiment on OVCAR-8 ovarian; 19 µM in the experiment on RPMI-8226 leukemia. For the same compound, the TGI is 30 µM with RXF 393 renal; 24.7 µM with SF-268 CNS; 21.2 µM in the experiment on SF-539 CNS; 22.8 µM in the experiment with SK-MEL-2 melanoma; 23.5 µM in the experiment with SW-620 colon; 14.2 µM with UACC-257 melanoma.

In the case of `O=C1c2ccccc2N(O)C1(c1ccccc1)C1CCCC=C1N1CCOCC1` (stereo not given), the TGI in the experiment on A549 NSCLC, in the experiment with ACHN renal, in the experiment with CAKI-1 renal, in the experiment with CCRF-CEM leukemia, in the experiment on HCT-116 colon and in the experiment on NCI-H460 lung was over 100 µM each time. The TGI is 73 µM with NCI-H522 lung; over 100 µM in the experiment with OVCAR-5 ovarian; over 100 µM in the experiment on OVCAR-8 ovarian; over 100 µM in the experiment with RPMI-8226 leukemia; over 100 µM in the experiment on RXF 393 renal; over 100 µM in the experiment on SF-268 CNS. The TGI with SF-539 CNS, with SW-620 colon and with UACC-257 melanoma was over 100 µM each time.

For the compound `Cc1ncn(-c2ccccc2O)c1C`, the TGI with A498 renal, in the experiment on A549 NSCLC, with ACHN renal, with CAKI-1 renal, in the experiment with CCRF-CEM leukemia and in the experiment on HCT-116 colon was over 100 µM each time. Further, the TGI with HOP-92 NSCLC, with MALME-3M melanoma, in the experiment on MCF7 breast, in the experiment with NCI-H522 lung, in the experiment on OVCAR-5 ovarian and in the experiment on OVCAR-8 ovarian was over 100 µM each time. The TGI in the experiment with RPMI-8226 leukemia, with RXF 393 renal, with SF-268 CNS, in the experiment on SF-539 CNS, with SK-MEL-2 melanoma and in the experiment on SW-620 colon was over 100 µM in each case. In the experiment on UACC-257 melanoma, this compound gave a TGI of over 100 µM.

`CN(C)Cc1cc(Cl)c(O)c(CN(C)C)c1`: the TGI in the experiment with A498 renal, in the experiment on A549 NSCLC, with ACHN renal, in the experiment on CAKI-1 renal, in the experiment with CCRF-CEM leukemia and in the experiment with HCT-116 colon was over 100 µM in each case. In addition, the TGI in the experiment with HOP-92 NSCLC, with MALME-3M melanoma, in the experiment with MCF7 breast, with NCI-H460 lung, with NCI-H522 lung and with OVCAR-5 ovarian was over 100 µM each time. Besides, the TGI in the experiment on OVCAR-8 ovarian, with RPMI-8226 leukemia, with RXF 393 renal, in the experiment on SF-268 CNS, in the experiment on SK-MEL-2 melanoma and in the experiment with SW-620 colon was over 100 µM each time. Besides, the TGI with UACC-257 melanoma was over 100 µM.

Take `COc1c2c(c3c(c1OC)c(=O)c1ccccc1n3C)OCO2`: the TGI with A498 renal, with A549 NSCLC, with ACHN renal, in the experiment on CAKI-1 renal, in the experiment with CCRF-CEM leukemia and in the experiment with HCT-116 colon was over 100 µM throughout. For the same compound, the TGI in the experiment with HOP-92 NSCLC, in the experiment with MCF7 breast, with NCI-H460 lung, with NCI-H522 lung, with OVCAR-5 ovarian and in the experiment on OVCAR-8 ovarian was over 100 µM in each case. Moreover, the TGI in the experiment with RPMI-8226 leukemia, in the experiment with SF-268 CNS, with SF-539 CNS, in the experiment on SK-MEL-2 melanoma, in the experiment with SW-620 colon and in the experiment on UACC-257 melanoma was over 100 µM throughout.

With `C=C(/C=C/C=C(\C)CCC=C(C)C)[C@@H]1CC[C@]2([C@H](CCCO)/C(=C(/C)C=O)CC[C@]2(C)O)[C@@H]1O`, the TGI with A549 NSCLC was 38.2 µM; in the experiment with ACHN renal it was over 100 µM; in the experiment on CAKI-1 renal it was 60.9 µM; in the experiment on CCRF-CEM leukemia, 48.8 µM; with MALME-3M melanoma, 29.8 µM; in the experiment on NCI-H460 lung, 26.5 µM. Besides, the TGI in the experiment on NCI-H522 lung was 33 µM; with OVCAR-5 ovarian, over 100 µM; with OVCAR-8 ovarian it was 46.5 µM; in the experiment with RXF 393 renal, 37.8 µM; in the experiment on SF-268 CNS, 41.8 µM; in the experiment with SF-539 CNS, 25.1 µM. Also, the values for the TGI with SK-MEL-2 melanoma, in the experiment with SW-620 colon and in the experiment on UACC-257 melanoma were 38.5 µM, 40.7 µM and 59.5 µM, respectively.

Regarding `Cc1cn(C2CC(n3cc(Cn4ccc(=O)[nH]c4=O)nn3)C(CO)O2)c(=O)[nH]c1=O` (stereo not given), the TGI in the experiment with A498 renal, with A549 NSCLC, in the experiment on ACHN renal, in the experiment on CAKI-1 renal, in the experiment with CCRF-CEM leukemia and with HCT-116 colon was over 100 µM in each case. Also, the TGI in the experiment with HOP-92 NSCLC, with MCF7 breast, in the experiment with OVCAR-5 ovarian, with OVCAR-8 ovarian, in the experiment with RPMI-8226 leukemia and in the experiment with RXF 393 renal was over 100 µM throughout. For the same compound, the TGI in the experiment with SF-268 CNS, in the experiment on SF-539 CNS, in the experiment with SK-MEL-2 melanoma, in the experiment on SW-620 colon and with UACC-257 melanoma was over 100 µM in each case.

Regarding `COc1ccc(C2CC(c3c(O)ccc4ccccc34)=NN2)cc1OC` (stereo not given), the TGI in the experiment on A498 renal is 43.6 µM; in the experiment on ACHN renal it was 4.82 µM; with CAKI-1 renal, 58.4 µM; in the experiment on CCRF-CEM leukemia, over 100 µM; in the experiment with HOP-92 NSCLC, 24.7 µM; with MALME-3M melanoma, 16.3 µM. Moreover, the TGI with MCF7 breast stood at 34.5 µM; in the experiment with NCI-H460 lung it was 8.24 µM; in the experiment on NCI-H522 lung, 8.58 µM; in the experiment with OVCAR-5 ovarian it was 18.2 µM; with OVCAR-8 ovarian it was 17.8 µM; in the experiment on RPMI-8226 leukemia it was 65 µM. Besides, the TGI in the experiment on RXF 393 renal was 24.6 µM; in the experiment with SF-268 CNS it was 11.5 µM; with SF-539 CNS, 18.4 µM; in the experiment with SK-MEL-2 melanoma, 30.9 µM; in the experiment on UACC-257 melanoma, 20.4 µM.
